Active and inactive are the calls of the source. The rule behind the calls is not given here.
What was measured:
[1] = target: T1, Proteinase-activated receptor 1 (Homo sapiens, UniProt P25116); test: Displacement of [3H]haTRAP from PAR1
T1 sequence (P25116 whole entry): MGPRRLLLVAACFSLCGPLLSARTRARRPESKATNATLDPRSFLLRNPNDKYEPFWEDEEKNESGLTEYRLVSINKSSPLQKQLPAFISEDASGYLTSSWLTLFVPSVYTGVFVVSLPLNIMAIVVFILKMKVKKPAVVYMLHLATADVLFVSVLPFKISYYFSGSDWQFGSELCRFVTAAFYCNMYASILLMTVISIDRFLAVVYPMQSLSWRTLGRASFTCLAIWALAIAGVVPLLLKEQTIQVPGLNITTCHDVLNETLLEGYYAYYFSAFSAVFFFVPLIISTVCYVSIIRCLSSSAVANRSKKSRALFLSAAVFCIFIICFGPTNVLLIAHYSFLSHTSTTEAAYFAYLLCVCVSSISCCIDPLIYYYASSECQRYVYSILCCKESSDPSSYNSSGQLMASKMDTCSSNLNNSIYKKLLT

[2] = test system: Cynomolgus monkey; test: Inhibition of platelet aggregation in cynomolgus monkey at 2 mg/kg, po after 24 hrs; type: functional, organism-based; parameters: dose 2 mg/kg; conditions: Macaca fascicularis
[3] = AUC (0 to 6 hrs) in rat; type: ADME, organism-based; parameters: time < 6 hr; concentration or dose not given beside the values; conditions: plasma
[4] = AUC (0 to 24 hrs) in cynomolgus monkey at 1 mg/kg, po; type: ADME, organism-based, Macaca fascicularis; parameters: time < 24 hr, dose 1 mg/kg, route oral; conditions: plasma
[5] = test system: Proteinase-activated receptor 1 (Homo sapiens); test: Dissociation half-life from PAR-1 receptor
[6] = AUC in cynomolgus monkey at 3 mg/kg, po; type: ADME, organism-based, Macaca fascicularis; parameters: dose 3 mg/kg, route oral; conditions: plasma
[7] = test system: Cynomolgus monkey; test: Inhibition of platelet aggregation in cynomolgus monkey at 3 mg/kg, po upto 5 hrs; type: functional, organism-based; parameters: dose 3 mg/kg; conditions: Macaca fascicularis
[8] = test system: Cynomolgus monkey; test: Inhibition of platelet aggregation in cynomolgus monkey after 24 hrs; type: functional, Macaca fascicularis
[9] = test system: Cynomolgus monkey; test: Inhibition of platelet aggregation in cynomolgus monkey at 3 mg/kg, po; type: functional, organism-based; parameters: dose 3 mg/kg; conditions: Macaca fascicularis

| Compound | IC50 [1] | other results |
| --- | --- | --- |
| O=C1OC[C@H]2[C@@H]1Cc1ccccc1[C@@H]2/C=C/c1ccc(-c2cccc(Cl)c2)cn1 | 14.5 nM | Activity [7]: Active; AUC [6]: 6300 ng·h/mL |
| O=C1OC[C@H]2[C@@H]1Cc1c(F)cccc1[C@@H]2/C=C/c1ccc(-c2cccc(F)c2)cn1 | 20.5 nM | AUC(0-t) at 6 h [3]: 4590 ng·h/mL |
| COc1ccc2nc(/C=C/[C@H]3c4ccccc4C[C@@H]4C(=O)O[C@@H](C)[C@@H]43)ccc2c1 | 9170 nM | – |
| O=C1OC[C@H]2[C@@H]1Cc1c(F)cc(F)cc1[C@@H]2/C=C/c1ccc(-c2cccc(Cl)c2)cn1 (racemic) | 46.5 nM | – |
| O=C1OC[C@H]2[C@@H]1Cc1c(F)cccc1[C@@H]2/C=C/c1ccc(-c2cccc(Cl)c2)cn1 | 29 nM | – |
| O=C1OC[C@H]2[C@@H]1Cc1c(Cl)cccc1[C@@H]2/C=C/c1ccc(-c2cccc(Cl)c2)cn1 (racemic) | 328 nM | – |
| O=C1OC[C@H]2[C@@H]1Cc1c(F)cc(F)cc1[C@@H]2/C=C/c1ccc(-c2cccc(C(F)(F)F)c2)cn1 | 21.5 nM | – |
| COc1ccc2nc(/C=C/[C@@H]3c4ccccc4C[C@H]4C(=O)O[C@@H](C)[C@@H]34)ccc2c1 | 3140 nM | – |
| O=C1OC[C@H]2[C@@H]1Cc1c(F)cccc1[C@@H]2/C=C/c1ccc(-c2cccc(C(F)(F)F)c2)cn1 (racemic) | 65 nM | – |
| COc1ccc2nc(/C=C/[C@@H]3c4ccccc4C[C@H]4C(=O)O[C@H](C)[C@@H]34)ccc2c1 | 580 nM | – |
| O=C1OC[C@H]2[C@@H]1Cc1c(ccc(F)c1F)[C@@H]2/C=C/c1ccc(-c2cccc(Cl)c2)cn1 | 15.5 nM | AUC(0-t) at 6 h [3]: 264 ng·h/mL; Activity [9]: inactive |
| O=C1OC[C@H]2[C@@H]1Cc1c(Cl)cccc1[C@@H]2/C=C/c1ccc(-c2cccc(C(F)(F)F)c2)cn1 (racemic) | 225 nM | – |
| O=C1OC[C@H]2[C@@H]1Cc1ccc(F)cc1[C@@H]2/C=C/c1ccc(-c2cccc(Cl)c2)cn1 | 10 nM | AUC(0-t) at 6 h [3]: 6720 ng·h/mL |
| O=C1OC[C@H]2[C@@H]1Cc1ccc(Cl)cc1[C@@H]2/C=C/c1ccc(-c2cccc(F)c2)cn1 | 14.5 nM | – |

Further compounds by falling IC50 [1], results first:

| IC50 [1] | Compound | other results |
| --- | --- | --- |
| 12000 nM | O=C1OC[C@H]2[C@H](/C=C/c3ccccn3)c3ccccc3C[C@@H]12 | – |
| 330 nM | O=C1OC[C@H]2[C@@H]1Cc1cccc(F)c1[C@@H]2/C=C/c1ccc(-c2cccc(Cl)c2)cn1 (racemic) | – |
| 225 nM | COc1ccc2nc(/C=C/[C@@H]3c4ccccc4C[C@H]4C(=O)OC(C)(C)[C@@H]34)ccc2c1 (racemic) | – |
| 138 nM | O=C1OC[C@H]2[C@@H]1Cc1ccc(Cl)cc1[C@@H]2/C=C/c1ccc(-c2cccc(C(F)(F)F)c2)cn1 (racemic) | – |
| 120 nM | O=C1OC[C@H]2[C@@H]1Cc1ccc(Cl)cc1[C@@H]2/C=C/c1ccc(-c2cccc(Cl)c2)cn1 (racemic) | – |
| 90 nM | COc1ccc2nc(/C=C/[C@H]3c4ccccc4C[C@@H]4C(=O)O[C@H](C)[C@@H]43)ccc2c1 | – |
| 85.5 nM | O=C1OC[C@H]2[C@@H]1Cc1cccc(F)c1[C@@H]2/C=C/c1ccc(-c2cccc(F)c2)cn1 (racemic) | – |
| 63.5 nM | O=C1OC[C@H]2[C@@H]1Cc1c(Cl)cccc1[C@@H]2/C=C/c1ccc(-c2cccc(F)c2)cn1 (racemic) | – |
| 31.5 nM | O=C1OC[C@H]2[C@@H]1Cc1ccc(F)cc1[C@@H]2/C=C/c1ccc(-c2cccc(C(F)(F)F)c2)cn1 | – |
| 13 nM | O=C1OC[C@H]2[C@@H]1Cc1cc(F)ccc1[C@@H]2/C=C/c1ccc(-c2cccc(Cl)c2)cn1 | AUC(0-t) at 6 h [3]: 3700 ng·h/mL; Inhibition [8]: 60% |
| 12.5 nM | COc1ccc2nc(/C=C/[C@@H]3c4ccccc4C[C@H]4C(=O)OC[C@@H]34)ccc2c1 (racemic) | – |
| 10 nM | O=C1OC[C@H]2[C@@H]1Cc1ccccc1[C@@H]2/C=C/c1ccc(-c2cccc(C(F)(F)F)c2)cn1 | AUC [6]: < 300 ng·h/mL |
| 10 nM | O=C1OC[C@H]2[C@@H]1Cc1ccc(F)cc1[C@@H]2/C=C/c1ccc(-c2cccc(F)c2)cn1 | AUC(0-t) at 6 h [3]: 5050 ng·h/mL |
| 7.6 nM | O=C1OC[C@H]2[C@@H]1Cc1cc(F)ccc1[C@@H]2/C=C/c1ccc(-c2cccc(F)c2)cn1 | Activity [2]: Active; AUC(0-t) at 6 h [3]: 3960 ng·h/mL; AUC(0-t) at 24 h [4]: 6200 ng·h/mL; dissociation half-life [5]: 2.32 h |
| 7.5 nM | O=C1OC[C@H]2[C@@H]1Cc1ccccc1[C@@H]2/C=C/c1ccc(-c2cccc(F)c2)cn1 | AUC [6]: < 300 ng·h/mL |
| 7 nM | O=C1OC[C@H]2[C@@H]1Cc1c(ccc(F)c1F)[C@@H]2/C=C/c1ccc(-c2cccc(F)c2)cn1 | – |
